In patent US20160122386A1, “V1A RECEPTOR AGONISTS” (FERRING B.V., priority 2014, published 2016):
Like-named read-outs stand apart in the source and are kept apart here. Starred links: 1 amine or outer side, 2 acyl side, 3 side chain; linkers in the order of their positions; H or OH if unused. Positions of bridges follow the written chain, without caps; N, C: chain ends. Non-standard residues stand in square brackets, D forms with d. Residues, ends and D or L forms follow the SMILES beside them. Chains are numbered I, II in the order given. *: point of attachment. d(isoGln) = NC(=O)[C@@H](CCC(=O)[*:2])N[*:1]; isoGln = NC(=O)[C@H](CCC(=O)[*:2])N[*:1]; d(εLys) = N[C@H](CCCCN[*:1])C(=O)[*:2]; X1 = N[C@@H](CCC(=O)[*:2])C(=O)[*:1]; εLys = N[C@@H](CCCCN[*:1])C(=O)[*:2]; Aad = N[C@@H](CCCC(=O)O)C(=O)O; Cit = NC(=O)NCCC[C@H](N)C(=O)O; Orn = NCCC[C@H](N)C(=O)O; Dab = NCC[C@H](N)C(=O)O; PhAc = O=C(Cc1ccccc1)*

Biological target: T1, human V1aR (Homo sapiens, UniProt P37288)
T1 construct: expressed in transfected cells
Assay: Agonist activity at vasopressin V1a receptors, cell-based FLIPR calcium assay
Settings: for Emax: read-out: Efficacy Avg. (%)
Procedure: Efficacy (% MPE) is also determined as the percentage of maximal possible effect. This agonist assay utilizes cells from a stable cell line (HEK-flpin) expressing the vasopressin V1a receptor. Intracellular calcium increase in response to agonist is measured through real-time fluorescence of an intracellular calcium-sensitive dye. Cells are exposed to varying concentrations of test agonist compounds whereupon release of intracellular calcium is measured to determine the agonist potency and efficacy.
The cell line stably expresses the lacZ-Zeocin™ fusion gene and is designed for use with the Flp-In™ expression vector containing the gene of interest and the Flp recombinase expression plasmid, pOG44. The cell line contains a single integrated Flp Recombination Target (FRT) site from pFRT/lacZeo or pFRT/lacZeo2. To generate the HEK-flpin cell line stably expressing the human V1aR, the cells were co-transfected with the Flp-In™ expression vector containing the gene of interest (pcDNA5/FRT-hV1aR) and the Flp recombinase expression plasmid pOG44. Flp recombinase mediates insertion of the Flp-In™ expression vector into the genome at the integrated FRT site through site-specific DNA recombination. Stable cell lines expressing the hV1aR from the Flp-In™ expression vector can be generated by selection using hygromycin B. See Life Technologies/Invitrogen manual, Growth and Maintenance of Flp-In™ Cell Lines, Version E, published Feb.
Efficacy of this compound was set to be 100%. A stock solution of 5 mM was made up in DMSO and stored at −20° C.
HEK-flpin-hV1aR, cmcqV1aR, dV1aR and pV1aR cells were maintained in DMEM containing 10% (v/v) FBS-HI, 4 mM GlutaMAX™-I, 25 μg/mL Hygromycin B at 37° C. under 5% CO2 in a humidified atmosphere. Subculture was achieved by splitting semi-confluent cultures 1:3 to 1:6.
All compounds were made up in 100% DMSO at 10 mM stock concentrations and stored at −20° C. The compounds were allowed to thaw just before the assay. […] Typical dilution procedure of 10× final assay concentration involved a 1:100 top dilution (e.g., 2 μl Stock into 198 μl dilution medium) followed by half-log serial dilutions (e.g., 25.3 μl into 54.7 μl dilution medium supplemented with 1% DMSO (v/v)). (Dilution media consisted of phenol-red free DMEM containing 10% FBS-HI, 4 mM GlutaMAX™-I). […] The final DMSO concentration in the assay was 0.1%.
Loading Buffer was prepared by dissolving 1 vial of Calcium 4 Assay reagent in 100 mL of 1× HBSS-20 mM Hepes buffer.
The cells were loaded with Loading Buffer as follows. Cell plates were removed from the incubator and 20 μl of Loading Buffer containing probenecid (2.5 mM) was added to each well. The cells were incubated for 1 hr at 37° C. under 5% CO2 in a humidified atmosphere. The calcium image was obtained as follows.
The cell plates were transferred to FLIPR Tetra, along with a 384 well V-bottom plate pre-loaded with half-log concentrations of test compounds at 10× final test concentrations. The remaining steps of the assay were carried forward by FLIPR Tetra. A baseline reading was taken at 1-second (s) intervals for 5s followed by the addition of 5 μl of 10× compounds (test, reference, or Blank). The agonist-induced fluorescence signal was then measured for 180 s with initial 120 readings at 1-second intervals followed by 20 readings at 3-second intervals. Overall, each well in the FLIPR assay was composed of the following components in a total volume of 50 μl: 20 μl cells; 20 μl Calcium 4 Loading Buffer; […] 10× test or reference compound.

[1] = HEK-flpin cells stably expressing hV1aR, intracellular calcium fluorescence, averaged, read-out: EC50 (Avg)

T1 sequence (P37288 whole entry): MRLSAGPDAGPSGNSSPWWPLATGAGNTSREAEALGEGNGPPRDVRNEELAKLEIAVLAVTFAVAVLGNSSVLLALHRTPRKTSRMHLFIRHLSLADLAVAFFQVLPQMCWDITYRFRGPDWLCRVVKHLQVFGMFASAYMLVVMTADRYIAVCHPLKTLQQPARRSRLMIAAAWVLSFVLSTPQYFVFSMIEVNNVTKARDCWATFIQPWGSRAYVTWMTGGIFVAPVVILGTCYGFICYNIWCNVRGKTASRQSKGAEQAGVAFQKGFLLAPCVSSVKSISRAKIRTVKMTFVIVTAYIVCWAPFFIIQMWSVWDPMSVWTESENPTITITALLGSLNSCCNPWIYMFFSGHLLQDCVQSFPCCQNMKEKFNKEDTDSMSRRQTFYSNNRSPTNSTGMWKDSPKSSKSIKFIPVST

EC50 [1] [nM] | Structure (SMILES) | EC50 [nM] | Emax [%]
 | CC[C@H](C)[C@@H]1NC(=O)[C@H](Cc2ccccc2)NC(=O)[C@@H](N)CSSC[C@@H](C(=O)N2CCC[C@H]2C(=O)N[C@@H](CCNC(=O)[C@@H](N)CCCCNC(=O)CC[C@H](NC(=O)[C@H](CCCNC(=N)N)NC(=O)[C@@H]2CCCN2C(=O)[C@H](CCCNC(N)=O)NC(=O)[C@H](CC(N)=O)NC(=O)[C@H](CCC(N)=O)NC(=O)[C@H](Cc2ccccc2)NC(=O)[C@@H](Cc2ccc(OC)cc2)NC(=O)Cc2ccccc2)C(N)=O)C(=O)NCC(N)=O)NC(=O)[C@H](CC(N)=O)NC(=O)[C@H](CCCC(N)=O)NC1=O [Compound 47] (I: H-CFI[Aad](NH2)NCP[Dab]G-NH2 / II: PhAc-[dY](Me)FQN[Cit]PR[isoGln][εLys]; disulfide I:1-I:6 (inferred); amide I:8-II:C (inferred)) | 1.8 | 45
 | CC[C@H](C)[C@@H]1NC(=O)[C@H](Cc2ccccc2)NC(=O)[C@@H](O)CSSC[C@@H](C(=O)N2CCC[C@H]2C(=O)N[C@@H](CCNC(=O)[C@@H](N)CCCCNC(=O)CC[C@H](NC(=O)[C@H](CCCNC(=N)N)NC(=O)[C@@H]2CCCN2C(=O)[C@H](C)NC(=O)[C@H](CC(N)=O)NC(=O)[C@H](CCC(N)=O)NC(=O)[C@H](Cc2ccccc2)NC(=O)[C@@H](Cc2ccc(OC)cc2)NC(=O)Cc2ccccc2)C(N)=O)C(=O)NCC(N)=O)NC(=O)[C@H](CC(N)=O)NC(=O)[C@H](CCC(N)=O)NC1=O [Compound 30] | 1.1 | 50
2.9 | CCCCCCC(=O)N[C@H](Cc1ccc(OC)cc1)C(=O)N[C@@H](Cc1ccccc1)C(=O)N[C@@H](CCC(N)=O)C(=O)N[C@@H](CC(N)=O)C(=O)N[C@@H](C)C(=O)N1CCC[C@H]1C(=O)N[C@@H](CCCNC(=N)N)C(=O)N[C@@H](CCC(=O)NCCCCCCNCCC[C@H](NC(=O)[C@@H]1CCCN1C(=O)[C@@H]1CSSC[C@H](N)C(=O)N[C@@H](Cc2ccccc2)C(=O)N[C@@H]([C@@H](C)CC)C(=O)N[C@@H](CCC(N)=O)C(=O)N[C@@H](CC(N)=O)C(=O)N1)C(=O)NCC(N)=O)C(N)=O [Compound 17] |  | 62
2.5 | CC[C@H](C)[C@@H]1NC(=O)[C@H](Cc2ccccc2)NC(=O)[C@@H](N)CSSC[C@@H](C(=O)N2CCC[C@H]2C(=O)N[C@@H](CCCNCCCCCCNC(=O)CC[C@H](NC(=O)[C@H](CCCNC(=N)N)NC(=O)[C@@H]2CCCN2C(=O)[C@H](C)NC(=O)[C@H](CC(N)=O)NC(=O)[C@H](CCC(N)=O)NC(=O)[C@H](Cc2ccccc2)NC(=O)[C@@H](Cc2ccc(OC)cc2)NC(=O)C2CCCCC2)C(N)=O)C(=O)NCC(N)=O)NC(=O)[C@H](CC(N)=O)NC(=O)[C@H](CCC(N)=O)NC1=O [Compound 19] |  | 50
 | CC[C@H](C)[C@@H]1NC(=O)[C@H](Cc2ccccc2)NC(=O)[C@@H](N)CSSC[C@@H](C(=O)N2CCC[C@H]2C(=O)N[C@@H](CCNC(=O)[C@@H](N)CCCCNC(=O)CC[C@H](NC(=O)[C@H](CCCNC(=N)N)NC(=O)[C@@H]2CCCN2C(=O)[C@H](C)NC(=O)[C@H](CC(N)=O)NC(=O)[C@H](CCC(N)=O)NC(=O)[C@H](Cc2ccccc2)NC(=O)[C@@H](Cc2ccc(OC)cc2)NC(=O)Cc2ccccc2)C(N)=O)C(=O)NCC(N)=O)NC(=O)[C@H](CC(N)=O)NC(=O)[C@H](CCC(N)=O)NC1=O [Compound 18] (I: H-CFIQNCP[Dab]G-NH2 / II: PhAc-[dY](Me)FQNAPR[isoGln][εLys]; disulfide I:1-I:6; amide I:8-II:C) | 3.9 | 49
 | CC[C@H](C)[C@@H]1NC(=O)[C@H](Cc2ccccc2)NC(=O)[C@@H](N)CSSC[C@@H](C(=O)N2CCC[C@H]2C(=O)N[C@@H](CCCNCCCCCC(=O)NCCCC[C@H](NC(=O)[C@H](CCCNC(=N)N)NC(=O)[C@@H]2CCCN2C(=O)[C@H](C)NC(=O)[C@H](CC(N)=O)NC(=O)[C@H](CCC(N)=O)NC(=O)[C@H](Cc2ccccc2)NC(=O)[C@@H](Cc2ccc(OC)cc2)NC(=O)Cc2ccccc2)C(N)=O)C(=O)NCC(N)=O)NC(=O)[C@H](CC(N)=O)NC(=O)[C@H](CCC(N)=O)NC1=O [Compound 8] | > 10000 | 50
 | CC[C@H](C)[C@@H]1NC(=O)[C@H](Cc2ccccc2)NC(=O)[C@@H](N)CSSC[C@@H](C(=O)N2CCC[C@H]2C(=O)N[C@@H](CCNC(=O)[C@H](N)CCCCNC(=O)CC[C@H](NC(=O)[C@H](CCCNC(=N)N)NC(=O)[C@@H]2CCCN2C(=O)[C@H](CCCNC(N)=O)NC(=O)[C@H](CC(N)=O)NC(=O)[C@H](CCC(N)=O)NC(=O)[C@H](Cc2ccccc2)NC(=O)[C@@H](Cc2ccc(OC)cc2)NC(=O)Cc2ccccc2)C(N)=O)C(=O)NCC(N)=O)NC(=O)[C@H](CC(N)=O)NC(=O)[C@H](CCCC(N)=O)NC1=O [Compound 52] (I: H-CFI[Aad](NH2)NCP[Dab]G-NH2 / II: PhAc-[dY](Me)FQN[Cit]PR[isoGln][d(εLys)]; disulfide I:1-I:6; amide I:8-II:C) | 1.5 | 47
 | CC[C@H](C)[C@@H]1NC(=O)[C@H](Cc2ccccc2)NC(=O)[C@@H](N)CSSC[C@@H](C(=O)N2CCC[C@H]2C(=O)N[C@@H](CCNC(=O)[C@@H](N)CCC(=O)NCCCC[C@H](NC(=O)[C@H](CCCNC(=N)N)NC(=O)[C@@H]2CCCN2C(=O)[C@H](C)NC(=O)[C@H](CC(N)=O)NC(=O)[C@H](CCC(N)=O)NC(=O)[C@H](Cc2ccccc2)NC(=O)[C@@H](Cc2ccc(OC)cc2)NC(=O)Cc2ccccc2)C(N)=O)C(=O)NCC(N)=O)NC(=O)[C@H](CC(N)=O)NC(=O)[C@H](CCC(N)=O)NC1=O [Compound 38] (I: H-CFIQNCP[Dab]G-NH2 / II: PhAc-[dY](Me)FQNAPRK-NH2; disulfide I:1-I:6; linker I:8-II:8 via X1) | 1.4 | 46
 | CC[C@H](C)[C@@H]1NC(=O)[C@H](Cc2ccccc2)NC(=O)[C@@H](N)CSSC[C@@H](C(=O)N2CCC[C@H]2C(=O)N[C@@H](CCNC(=O)[C@H](N)CCCCNC(=O)CC[C@@H](NC(=O)[C@H](CCCNC(=N)N)NC(=O)[C@@H]2CCCN2C(=O)[C@H](C)NC(=O)[C@H](CC(N)=O)NC(=O)[C@H](CCC(N)=O)NC(=O)[C@H](Cc2ccccc2)NC(=O)[C@@H](Cc2ccc(OC)cc2)NC(=O)Cc2ccccc2)C(N)=O)C(=O)NCC(N)=O)NC(=O)[C@H](CC(N)=O)NC(=O)[C@H](CCC(N)=O)NC1=O [Compound 56] (I: H-CFIQNCP[Dab]G-NH2 / II: PhAc-[dY](Me)FQNAPR[d(isoGln)][d(εLys)]; disulfide I:1-I:6; amide I:8-II:C) | 1.8 | 60
 | CC[C@H](C)[C@@H]1NC(=O)[C@H](Cc2ccccc2)NC(=O)[C@@H](N)CSSC[C@@H](C(=O)N2CCC[C@H]2C(=O)N[C@@H](CCCNC(=O)[C@@H](N)CCCCNC(=O)CC[C@H](NC(=O)[C@H](CCCNC(=N)N)NC(=O)[C@@H]2CCCN2C(=O)[C@H](C)NC(=O)[C@H](CC(N)=O)NC(=O)[C@H](CCC(N)=O)NC(=O)[C@H](Cc2ccccc2)NC(=O)[C@@H](Cc2ccc(OC)cc2)NC(=O)Cc2ccccc2)C(N)=O)C(=O)NCC(N)=O)NC(=O)[C@H](CC(N)=O)NC(=O)[C@H](CCC(N)=O)NC1=O [Compound 28] (I: H-CFIQNCP[Orn]G-NH2 / II: PhAc-[dY](Me)FQNAPR[isoGln][εLys]; disulfide I:1-I:6; amide I:8-II:C) | 1.2 | 44
 | CC[C@H](C)[C@@H]1NC(=O)[C@H](Cc2ccccc2)NC(=O)[C@@H](N)CSSC[C@@H](C(=O)N2CCC[C@H]2C(=O)N[C@@H](CCNC(=O)[C@H](N)CCCCNC(=O)CC[C@@H](NC(=O)[C@H](CCCNC(=N)N)NC(=O)[C@@H]2CCCN2C(=O)[C@H](CCCNC(N)=O)NC(=O)[C@H](CC(N)=O)NC(=O)[C@H](CCC(N)=O)NC(=O)[C@H](Cc2ccccc2)NC(=O)[C@@H](Cc2ccc(OC)cc2)NC(=O)Cc2ccccc2)C(N)=O)C(=O)NCC(N)=O)NC(=O)[C@H](CC(N)=O)NC(=O)[C@H](CCC(N)=O)NC1=O [Compound 55] (I: H-CFIQNCP[Dab]G-NH2 / II: PhAc-[dY](Me)FQN[Cit]PR[d(isoGln)][d(εLys)]; disulfide I:1-I:6; amide I:8-II:C) |  | 56
